Source: patent publication US11849726B2, “Microbicidal composition” (Lanxess Corporation, priority 2016, dated 2023)

What was measured:
Format in all cases: cell-based
[1] = system: Staphylococcus aureus ATCC #6538; test: MIC / synergy index test in 96 well microtiter plates, Gram positive bacteria; conditions: S. aureus ATCC #6538, contact time 24 hrs, 10% tryptic soy broth
Protocol: (§1) Phenoxyethanol and Dipropylene glycol phenyl ether were evaluated for synergy by determining the synergy index (S.I.) of the combination. Synergy index was calculated based on minimum inhibitory concentrations (MIC) of two antimicrobial compounds (A and B) alone and in combinations. The MIC test were run in accordance with the method described in U.S. Pat. No. 9,034,905. The tests organisms were Gram negative bacteria (Pseudomonas aeruginosa ATCC #15442), Gram positive bacteria (Staphylococcus aureus ATCC #6538), and yeast (Candida albicans ATCC #10231) and mold (Aspergillus brasiliensis ATCC #16404). Contact time for the bacteria was 24 and 48 hours, yeast was 48 and 72 hrs, and 3 and 7 days for mold. The test was carried out in 96 well microtiter plates.
(§2) SI is calculated as follows: Ca/CA+Cb/CB=Synergy Index (“SI”) Wherein: • CA=concentration of compound A in ppm, acting alone, which produced an end point (MIC of Compound A). • Ca=concentration of compound A in ppm, in the mixture, which produced an end point. • CB=concentration of compound B in ppm, acting alone, which produced an end point (MIC of Compound B). • Cb=concentration of compound B in ppm, in the mixture, which produced an end point.
(§3) When the sum of Ca/CA and Cb/CB is greater than one, antagonism is indicated.

[2] = system: Aspergillus brasiliensis ATCC #16404; test: MIC / synergy index test in 96 well microtiter plates, mold; conditions: A. brasiliensis ATCC #16404, contact time 3 days, potato dextrose broth
Protocol: as §1, §2, §3

[3] = system: Candida albicans ATCC #10231; test: MIC / synergy index test in 96 well microtiter plates, yeast; conditions: C. albicans ATCC #10231, contact time 24 hrs, potato dextrose broth
Protocol: as §1, with “Contact time for the bacteria was 24 and 48 hours, yeast was 48 and 72 hrs, and 3 and 7 days for mold.” left out
as §2, §3

SMILES	MIC of compound acting alone (CA / CB) [1]	MIC of compound acting alone (CA / CB) [2]	MIC of compound acting alone (CA / CB) [3]
CC(CO)OCC(C)Oc1ccccc1 (stereo not drawn) [Dipropylene glycol phenyl ether]	19992 ppm AI	10000 ppm AI	19992 ppm AI
OCCOc1ccccc1 [Phenoxyethanol, 2-phenoxy-1-ethanol]	5000 ppm AI	3000 ppm AI	5000 ppm AI
